Experimental data as given in US4278596A, “Analgesic pentapeptides” (American Home Products Corporation, priority 1978, dated 1981).

Assays:
rats = test: rat-tail flick method of D'Amour and Smith; format: in vivo; conditions: 5.0 mg/kg. i.v.
Protocol: In this procedure, a representative polypeptide of this invention, N-Me-Tyr-D-Ser-Gly-N-Me-Phe-D-Ser-NH2,acetate, produced significant analgesia in rats upon administration at a dose as low as 0.1 mg/kg. intravenously, and 0.5 mg/kg. subcutaneously.
When N-Me-Tyr-D-Ser-Gly-N-Me-Phe-D-Ser-NH2, acetate was tested in the rat-tail flick procedure of D'Amour and Smith (supra), the following results were obtained: […]

mouse vas deferns = conditions: mouse vas deferens, like morphine; cited from earlier work
guinea pig ileum = conditions: like morphine; cited from earlier work
opiate receptor = conditions: brain homogenates; cited from earlier work

Molecule | dead (rats) | effect on electrically evoked contractions (mouse vas deferns) | effect on electrically evoked contractions (guinea pig ileum) | effect on stereospecific receptor binding of 3H-naloxone (opiate receptor)
CN[C@@H](Cc1ccc(O)cc1)C(=O)N[C@H](CO)C(=O)NCC(=O)N(C)[C@@H](Cc1ccccc1)C(=O)N[C@H](CO)C(N)=O [N-Methyl-Tyrosyl-D-Serylglycyl-N-MethylPhenylalanyl-D-Serinamide. Acetate] | 3/6 |  |  | 
H-Tyr-Gly-Gly-Phe-Met-OH [methionine-enkephalin] |  | block electrically evoked contractions | block electrically evoked contractions | inhibit
H-Tyr-Gly-Gly-Phe-Leu-OH [leucine-enkephalin] |  | block electrically evoked contractions | block electrically evoked contractions | inhibit
